From patent US12036312B2, “Non-aqueous topical compositions comprising a halogenated salicylanilide” (priority 2016, dated 2024)
Values after ≈ are worked out from the molar mass of the structure shown. Read-outs that look alike come from different tables or passages of the source.

System: P. acnes
Assay: MIC by agar dilution, Propionibacterium acnes
Assay type: cell-based
Settings: Cutibacterium acnes
Procedure: The strains of P. acnes used were CSS3288, CSS 3023, 998, and 1044 obtained from Luc Dubreuil. P. acnes strains are grown on Brucella blood agar with hemin and vitamin K [1], plates are incubated 48 to 72 hours at 35-37° C. under anaerobic conditions. Brucella blood agar with hemin and vitamin K was prepared as follows: sterile Brucella agar with hemin and vitamin K was tempered to 50-54° C. and the medium was supplemented with 5% lacked horse blood and poured in Petri dishes. Broth cultures are performed in Wilkins-Chalgren broth. All cultures are done under anaerobic conditions in an anaerobic chamber. Agar media was inoculated for single-colony isolation using sterile disposable loops. The MICs of the antibacterial agents was determined by agar dilution. […] Brucella Blood Agar with hemin and vitamin K plates containing series of two-fold dilutions of antibacterial agents were prepared. The base agar was prepared and tempered to 50-54° C. Then the blood supplement and the antibiotics were added and the 7 ml were aseptically poured into six-well culture plates. Once the agar had solidified it was transferred into the anaerobe chamber for 24 hours before use to allow for pre-reduction. Twenty-five microliters of P. acnes culture containing 10^6 CFU of were spotted in each well. The plates were incubated anaerobically for 72 hours at 35-37° C. The MIC is the lowest concentration that inhibits growth of P. acnes.

[1] = P. acnes, agar dilution, anaerobic, 72 hours, read-out: MIC

With `C=C[C@]1(C)C[C@@H](OC(=O)CS[C@@H]2C[C@H]3CC[C@@H](C2)N3C)[C@]2(C)[C@H](C)CC[C@]3(CCC(=O)[C@H]32)[C@@H](C)[C@@H]1O` [Retapamulin, retapamulin] the MIC (72 h) was 0.016 µg/mL (≈ 0.0309 µM).
For `CC(=O)O[C@H]1C[C@@]2(C)[C@@H](C[C@@H](O)[C@H]3[C@@]4(C)CC[C@@H](O)[C@@H](C)[C@@H]4CC[C@@]32C)/C1=C(\CCC=C(C)C)C(=O)O` [Fusidic acid, fusidic acid], the MIC [1] was 4 µg/mL (≈ 7.74 µM).
`O=C(Nc1ccc([N+](=O)[O-])cc1Cl)c1cc(Cl)ccc1O` [Niclosamide, niclosamide] gave an MIC [1] of 0.5 µg/mL (≈ 1.53 µM).
